Patent publication US6380218B1, “Nicotinamide derivatives” (Pfizer Inc, priority 1997, dated 2002)

What was measured:
[1] = biological target: human recombinant PDE4A (Homo sapiens, UniProt P27815); test: Hydrolysis of 1 uM cAMP by human recombinant PDE4A; assay type: biochemical; details: for Enantiomer (+) vs. (−), PDE4A: potency of (+) relative to (−) enantiomer; for IC50: human recombinant PDE4A, 1 uM cAMP, read-out: Isozyme - IC50, A
Description: (§1) To assess pharmacologically which PDE4 isozyme(s) is responsible for eosinophil activation, we have prepared enantiomers of PDE4 inhibitors and compare the inhibitory effect of these enantiomers on PDE activity and eosinophil activation. PDE4 activity is assessed by measuring hydrolysis of 1 uM cAMP by individual human recombinant PDE4 isozymes (PDE4A, 4B, 4C or 4D). Eosinophil activation is estimated by measuring Sephadex beads-induced release of eosinophil derived neurotoxin (EDN) and leukotriene E4 in human whole blood. Table 1 illustrates comparison of one example of (−) and (+) enantiomers on the activity of individual PDE4 isozymes and on the release of END and LTE4.

[2] = biological target: human recombinant PDE4B (Homo sapiens, UniProt Q07343); test: Hydrolysis of 1 uM cAMP by human recombinant PDE4B; assay type: biochemical; details: for Enantiomer (+) vs. (−), PDE4B: potency of (+) relative to (−) enantiomer; for IC50: human recombinant PDE4B, 1 uM cAMP, read-out: Isozyme - IC50, B
Description: as §1

[3] = biological target: human recombinant PDE4C (Homo sapiens, UniProt Q08493); test: Hydrolysis of 1 uM cAMP by human recombinant PDE4C; assay type: biochemical; details: for Enantiomer (+) vs. (−), PDE4C: potency of (+) relative to (−) enantiomer; for IC50: human recombinant PDE4C, 1 uM cAMP, read-out: Isozyme - IC50, C
Description: as §1

[4] = biological target: human recombinant PDE4D (Homo sapiens, UniProt Q08499); test: Hydrolysis of 1 uM cAMP by human recombinant PDE4D; assay type: biochemical; details: for Enantiomer (+) vs. (−), PDE4D: potency of (+) relative to (−) enantiomer; for IC50: human recombinant PDE4D, 1 uM cAMP, read-out: Isozyme - IC50, 4D
Description: as §1

[5] = tested on: eosinophil derived neurotoxin (EDN) release, human whole blood eosinophils; test: Sephadex beads-induced EDN release in human whole blood (eosinophil degranulation); assay type: cell-based; details: for Enantiomer (+) vs. (−), EDN: potency of (+) relative to (−) enantiomer, human whole blood; for IC50: Homo sapiens, Eosinophil, read-out: HWB Eosinophil IC30 or IC50, EDN
Description: (§2) Inhibition of Eosinophil Degranulation and Activation in Human Whole Blood
(§3) Human Blood Eosinophil Degranulation and Activation Measurement
(§4) Blood Collection and Compound Incubation
(§5) One hundred ml blood is obtained from normal volunteers in Vacutainer tube #6480 (14.3 USP units sodium heparin/ml blood). Heparinized blood is pooled in 50 ml conical centrifuge tubes at 22° C. On ml blood is placed in a 12×75 mm siliconized glass tube containing 1 ul DMSO or 1 ul test compound in triplicate. After mixing, tubes are placed in a shaking water bath at 37° C. for 15 minutes. One ul PGE1 in DMSO is added to all tubes to give a final concentration of 1 uM. After mixing, 100 ul PBS (negative control) or Sephadex G-15 beads in PBS (8.25-16.5 mg/ml final concentration) is added to tubes. After mixing, all tubes are incubated in a shaking water bath at 37° C. for 1-2 hours.
(§6) Preparation of Plasma Samples
(§7) At the end of incubation, 20 ul of 15% EDTA in PBS is added to each assay tube. After mixing, the samples are centrifuged at 2,000 rpm (Sorvall 6000B centrifuge) at 22° C. for 5 minutes.
(§8) EDN (or EPX) and LTE4 Measurements and the Effect of Compounds
(§9) All plasma samples are tested for EDN (eosinophil derived neurotoxin) and LTE4 (leukotriene E4) levels. […] The levels of EDN and LTE4 are determined by a RIA (Kabi Pharmacia Diagnostics) and EIA (Cayman Chemical), respectively. EDN and LTE4 levels are calculated by comparison to a standard curve using Microsoft Excel or other appropriate software. Percent of control EDN or LTE4 release is calculated by:
% Control EDN=[EDN(compound)−EDN(blank)]/[EDN(total)−EDN(blank)]
(§10) where the blank is the level of EDN or LTE4 in the absence of Sephadex beads and the total is the level of EDN or LTE4 in the presence of Sephadex beads. An IC30 or IC50 value is defined as the concentration of a compound that inhibits specific EDN or LTE 4 release by 30 or 50%, respectively.
as §1

[6] = tested on: leukotriene E4 (LTE4) release, human whole blood eosinophils; test: Sephadex beads-induced LTE4 release in human whole blood (eosinophil activation); assay type: cell-based; details: for Enantiomer (+) vs. (−), LTE4: potency of (+) relative to (−) enantiomer; for IC50: Eosinophil, Sephadex beads, head does not say whether IC30 or IC50, read-out: HWB Eosinophil IC30 or IC50, LTE4
Description: as §2, §3, §4, §5, §6, §7, §8, §9
% Control LTE4=[LTE4(compound)−LTE4(blank)]/[LTE4(total)−LTE4(blank)]
as §10, §1

Chain of human recombinant PDE4D (Q08499 whole entry): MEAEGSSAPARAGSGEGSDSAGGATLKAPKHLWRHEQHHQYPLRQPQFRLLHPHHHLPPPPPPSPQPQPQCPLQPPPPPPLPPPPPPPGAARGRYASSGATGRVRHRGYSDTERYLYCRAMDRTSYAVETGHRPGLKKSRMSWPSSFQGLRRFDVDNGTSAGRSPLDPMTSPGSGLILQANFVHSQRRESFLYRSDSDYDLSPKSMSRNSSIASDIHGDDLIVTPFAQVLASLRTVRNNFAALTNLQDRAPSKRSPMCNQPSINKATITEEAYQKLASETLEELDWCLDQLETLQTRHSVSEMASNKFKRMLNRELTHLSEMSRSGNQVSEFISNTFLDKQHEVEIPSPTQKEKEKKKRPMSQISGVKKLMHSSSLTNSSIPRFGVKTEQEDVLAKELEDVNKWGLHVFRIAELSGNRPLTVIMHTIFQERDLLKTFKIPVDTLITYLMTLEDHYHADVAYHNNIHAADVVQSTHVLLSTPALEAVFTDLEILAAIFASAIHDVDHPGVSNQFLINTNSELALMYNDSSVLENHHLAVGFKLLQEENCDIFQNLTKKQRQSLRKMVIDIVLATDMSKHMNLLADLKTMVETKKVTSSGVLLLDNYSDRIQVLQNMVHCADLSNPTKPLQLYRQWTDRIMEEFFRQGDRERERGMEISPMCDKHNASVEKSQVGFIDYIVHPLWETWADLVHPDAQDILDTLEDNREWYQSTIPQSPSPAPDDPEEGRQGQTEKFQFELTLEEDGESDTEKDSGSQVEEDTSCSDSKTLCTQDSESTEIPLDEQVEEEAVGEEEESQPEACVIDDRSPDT
Chain of human recombinant PDE4A (P27815 whole entry): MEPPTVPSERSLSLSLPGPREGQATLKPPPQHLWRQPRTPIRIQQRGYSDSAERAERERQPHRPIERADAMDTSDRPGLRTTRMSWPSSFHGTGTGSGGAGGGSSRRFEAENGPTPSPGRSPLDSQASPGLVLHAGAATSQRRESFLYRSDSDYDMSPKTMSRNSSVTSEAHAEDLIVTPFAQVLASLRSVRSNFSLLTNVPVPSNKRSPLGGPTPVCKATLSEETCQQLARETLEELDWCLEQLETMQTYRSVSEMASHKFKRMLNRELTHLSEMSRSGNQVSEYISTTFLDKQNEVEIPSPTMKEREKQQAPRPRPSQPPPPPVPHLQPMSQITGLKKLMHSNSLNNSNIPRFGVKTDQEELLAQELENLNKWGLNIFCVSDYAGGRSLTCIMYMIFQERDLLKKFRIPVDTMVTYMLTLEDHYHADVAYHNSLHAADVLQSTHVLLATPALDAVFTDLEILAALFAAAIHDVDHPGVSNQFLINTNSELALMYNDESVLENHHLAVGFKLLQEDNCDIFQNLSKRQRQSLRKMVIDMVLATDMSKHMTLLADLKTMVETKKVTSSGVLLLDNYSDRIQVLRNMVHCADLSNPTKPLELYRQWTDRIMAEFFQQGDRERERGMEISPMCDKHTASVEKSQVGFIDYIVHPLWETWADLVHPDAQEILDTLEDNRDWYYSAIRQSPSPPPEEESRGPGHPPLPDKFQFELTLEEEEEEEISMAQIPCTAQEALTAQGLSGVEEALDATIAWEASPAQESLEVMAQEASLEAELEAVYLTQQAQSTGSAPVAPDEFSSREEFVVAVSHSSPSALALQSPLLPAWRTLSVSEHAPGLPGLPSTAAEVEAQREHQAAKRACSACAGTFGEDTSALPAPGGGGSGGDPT
Chain of human recombinant PDE4C (Q08493 whole entry): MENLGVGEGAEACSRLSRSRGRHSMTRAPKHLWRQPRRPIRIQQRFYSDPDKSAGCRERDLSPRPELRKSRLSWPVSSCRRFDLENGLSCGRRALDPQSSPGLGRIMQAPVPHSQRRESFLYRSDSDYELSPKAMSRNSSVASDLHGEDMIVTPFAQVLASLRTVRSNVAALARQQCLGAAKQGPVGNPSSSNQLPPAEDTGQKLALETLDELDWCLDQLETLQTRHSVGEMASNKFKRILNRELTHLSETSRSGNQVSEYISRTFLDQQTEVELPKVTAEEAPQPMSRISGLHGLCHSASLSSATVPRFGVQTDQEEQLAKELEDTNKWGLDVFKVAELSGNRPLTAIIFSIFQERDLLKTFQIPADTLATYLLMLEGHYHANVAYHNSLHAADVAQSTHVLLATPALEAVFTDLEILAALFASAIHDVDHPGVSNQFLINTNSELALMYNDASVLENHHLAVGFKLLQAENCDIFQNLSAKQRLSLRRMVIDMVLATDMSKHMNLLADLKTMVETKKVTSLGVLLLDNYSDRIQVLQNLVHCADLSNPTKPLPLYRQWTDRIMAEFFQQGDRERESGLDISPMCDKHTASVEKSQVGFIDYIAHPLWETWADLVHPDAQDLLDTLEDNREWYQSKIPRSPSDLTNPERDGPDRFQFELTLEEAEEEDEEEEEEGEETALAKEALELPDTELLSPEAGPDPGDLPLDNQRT
Chain of human recombinant PDE4B (Q07343 whole entry): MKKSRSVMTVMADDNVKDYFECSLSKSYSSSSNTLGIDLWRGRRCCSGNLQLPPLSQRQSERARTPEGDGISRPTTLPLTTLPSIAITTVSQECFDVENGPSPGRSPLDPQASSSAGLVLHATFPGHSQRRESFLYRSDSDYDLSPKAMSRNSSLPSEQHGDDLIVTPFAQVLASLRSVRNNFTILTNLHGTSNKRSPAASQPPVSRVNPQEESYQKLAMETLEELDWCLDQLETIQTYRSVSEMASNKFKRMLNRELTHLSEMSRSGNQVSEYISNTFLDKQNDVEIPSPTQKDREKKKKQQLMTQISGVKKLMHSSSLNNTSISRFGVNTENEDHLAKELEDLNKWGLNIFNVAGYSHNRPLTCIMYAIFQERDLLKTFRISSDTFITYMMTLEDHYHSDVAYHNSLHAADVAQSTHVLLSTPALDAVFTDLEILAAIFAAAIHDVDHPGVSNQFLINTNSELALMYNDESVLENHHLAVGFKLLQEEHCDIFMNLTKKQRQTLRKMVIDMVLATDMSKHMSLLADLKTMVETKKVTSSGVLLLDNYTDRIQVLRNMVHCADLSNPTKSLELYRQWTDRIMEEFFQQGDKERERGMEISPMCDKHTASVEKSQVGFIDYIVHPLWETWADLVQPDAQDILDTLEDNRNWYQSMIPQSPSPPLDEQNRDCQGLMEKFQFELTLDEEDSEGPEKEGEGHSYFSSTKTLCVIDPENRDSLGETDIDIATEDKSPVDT

Compound | Enantiomer (+) vs. (−), PDE4A [1] | Enantiomer (+) vs. (−), PDE4B [2] | Enantiomer (+) vs. (−), PDE4C [3] | Enantiomer (+) vs. (−), PDE4D [4] | Enantiomer (+) vs. (−), EDN [5] | Enantiomer (+) vs. (−), LTE4 [6] | IC50 [1] | IC50 [2] | IC50 [3] | IC50 [4] | IC50 [5] | IC50 [6]
(S)-(+) 2-(4-Fluoro-phenoxy)-N-[1-(4-methoxy-phenyl)-ethyl]-nicotinamide [(+) Enantiomer] | .s. | .5X | 0.5X | 22X | 20X | 37X |  |  |  |  |  | 
COc1ccc([C@H](C)NC(=O)c2cccnc2Oc2ccc(F)cc2)cc1 [(+) Enantiomer, (S)-(+) 2-(4-Fluoro-phenoxy)-N-[1-(4-methoxy-phenyl)-ethyl]-nicotinamide] | approximately equipotent | approximately equipotent | approximately equipotent | 22 X | 20-37 X | 20-37 X | 600 nM | 600 nM | 800 nM | 9 nM | 50 nM | 8 nM
COc1ccc([C@@H](C)NC(=O)c2cccnc2Oc2ccc(F)cc2)cc1 [(−) Enantiomer, (R)(−)2-(4-Fluoro-phenoxy)-N-[1-(4-methoxy-phenyl)-ethyl]-nicotinamide] |  |  |  |  |  |  | 600 nM | 300 nM | 400 nM | 200 nM | 1000 nM | 300 nM
